Measured values taken from patent US20100298430A1, “PROPHYLACTIC ANTISTRESS AGENT” (KAO CORPORATION, priority 2005, published 2010).

How the values were obtained:
fatigue rats [1] = experiment: Weighted swimming test in water immersion central fatigue model rats, administration in drinking water; assay type: in vivo, SD rats; details: 0.25% (W/V) in drinking water (370 mg/kg/day), oral; 3 days water immersion; swim on the 4th day with weight 8% of body weight; vs distilled water control
Protocol: A test sample or distilled water used as a control was administered in the form of drinking water to SD rats (male, 6-week-old, n=3 to 6). Thereafter, the rats were bred for 3 days in a cage wherein the water depth had been set at 1.5 cm (23±1° C.) (1 rat/1 cage), so as to produce fatigue rats. It is to be noted that the water in such a cage was exchanged with fresh one every day. At the same time, rats, which had been bred on a common bedding, were defined as normal rats. After completion of the breeding for 3 days, a weight that was 8% of the body weight was attached to the tail portion of each rat on the 4th day, and the rat was then allowed to swim in water of 23° C. The time required until the nose was submerged in water for 10 or more seconds was measured, and the thus measured time was evaluated as a fatigue level caused by central fatigue (chronic fatigue). This model has been known as a central fatigue model (Non-Patent Document 1 and Neurosci. Lett. 352 (2003), 159-162). For the test group, 0.25% (W/V) chlorogenic acid (370 mg/kg/day) was used. For the control group, distilled water was used.

fatigue rats [2] = experiment: Weighted swimming test in water immersion load fatigue rats (stress fatigue), intraperitoneal administration; assay type: in vivo, SD rats; details: CQA 300 mg/kg intraperitoneally once a day for 5 days; swim on the 6th day with weight 8% of body weight, water of 23° C.; vs normal saline control
Protocol: SD rats (male, 7-week-old, n=4 to 12) were bred for 5 days in a cage wherein the water depth had been set at 1.5 cm (23±1° C.) (1 rat/1 cage), so as to produce fatigue rats. It is to be noted that the water in such a cage was exchanged with fresh one every day. From the first day, a test sample or a normal saline solution used as a control was intraperitoneally administered to the rats once a day. At the same time, rats, which had been bred on a common bedding, were defined as normal rats, and from the first day, a normal saline solution was intraperitoneally administered to them once a day. After completion of the breeding for 5 days, a weight that was 8% of the body weight was attached to the tail portion of each rat on the 6th day, and the rat was then allowed to swim in water of 23° C. The time required until the nose was submerged in water for 10 or more seconds was measured, and the thus measured time was evaluated as a fatigue level caused by stress. For the test group, chlorogenic acid (CQA 300 mg/kg) was used. For the control group, a normal saline solution was used.

**Q.** With O=C(/C=C/c1ccc(O)c(O)c1)O[C@@H]1C[C@](O)(C(=O)O)C[C@@H](O)[C@H]1O [chlorogenic acid] as the molecule, how does the “fatigue level caused by central fatigue (chronic fatigue) (swimming time until the nose was submerged in water for 10 or more seconds)” value (fatigue rats [1]) read?
**A.** Its value is “attenuated”.

**Q.** And the “fatigue level caused by stress (swimming time until the nose was submerged in water for 10 or more seconds)” value (fatigue rats [2])?
**A.** The value was “attenuated”.
